Read-outs that look alike come from different tables or passages of the source.
Test system: normal cells
Assay: Survival rate of normal cells after test compound is added (flow cytometry, Annexin V-FITC/PI)
Assay type: cell-based
Settings: 18 h
From the text: Take fresh or cryopreserved clinical specimen (acute myelogenous leukemia (AML, marker is CD34^+/CD38^+), chronic myelogenous leukemia (CML, Ph+/CD34+/CXCR4+), chronic lymphocytic leukemia (CLL,CD133+/CD19−/CD38−), skin cancer (CD34+), breast cancer (CD44+/CD24−/ESA+), ovarian cancer (CD44+/CD117+), brain tumor (CD133+) prostate cancer (CD44+/CD24−), head-neck squamous cell carcinoma (CD44+), laryngeal cancer (CD133+), pancreatic cancer (ESA+/CD44+/CD24+), retinoblastoma (ABCG2/ALDH1), Children hepatoblastoma (CD34+/THY1+/c-kit+), liver cancer (CD133+), malignant melanoma (CD133+), colorectal cancer (EpCAM^high/CD44+), colon adenocarcinoma (CD44^high), glioma (ABCG-2/BCRP1), gastrointestinal tumor (ABCG-2/BCRP1), nasopharynx cancer (ABCG2), brain glioma (Dlk-1/Pref-1), gastric cancer (CD45+), lung adenocarcinoma (Sca-1/CD45-/Pecam-/CD34+), lung cancer (CD133+CD34+CD44+)) of patient. Take the acute myelogenous leukemia as the example, conduct density gradient centrifugation with Ficoll and take out the middle mononuclear cells, re-suspend it with serum-free IMDM after centrifuged. Adjust the concentration of cells into 1×10^6/mL and lay 24-well plate with 1 mL in each well, and then treat 18 hours with the compound to select with corresponding concentration. Collect the cells and centrifuge them at 1500 rps for 8 minutes, re-suspend the precipitation with […], mark the antibodies related to leukemia stem cell, avoid light to incubate 30 minutes at room temperature and then centrifuge it at 1500 rps, then wash away the unbound antibody CD34^+CD38^+. Re-suspend it with 100 μl 1× Binding Buffer and add respectively 5 μl Annexin V-FITC and PI, then avoid light to incubate 15 minutes before add 200 μl 1× Binding Buffer, then use flow cytometry to examine the marked apoptosis within one hour.

[1] = read-out: Survival rate (%) All cells (Stem cells and ordinary cells)
[2] = read-out: Survival rate (%) Stem cells

| Structure (SMILES) | viability at 10 µM [1] [%] | viability at 10 µM [2] [%] | viability at 20 µM [1] [%] | viability at 20 µM [2] [%] |
| --- | --- | --- | --- | --- |
| CC1=C2CC[C@@](C)(O)[C@@H]2[C@H]2OC(=O)[C@@H](CN(C)C)[C@@H]2CC1 [Compound 23] | 96 | 93 | 95 | 92 |
| C=C1C(=O)O[C@H]2[C@H]1CC[C@@](C)(OC)C1CC[C@@](C)(O)[C@@H]12 (stereo partly shown) [Compound 47] | 95 | 93 | 94 | 92 |
| C=C1CC[C@H]2C(=C)CC[C@H]3C(=C)C(=O)O[C@@H]3[C@@H]12 [Compound 25] | 93 | 89 | 91 | 88 |
| C=C1C(=O)O[C@H]2[C@H]1CCC(C)=C1CC[C@@](C)(OC(=O)CCCc3cn(CCCCCCO)nn3)[C@@H]12 [Compound 21] | 95 | 94 | 94 | 92 |
| C=C1C(=O)O[C@H]2[C@H]1CC[C@]1(C)O[C@@]13CC[C@@](C)(O)[C@H]23 [Compound 24] | 93 | 92 | 92 | 90 |
| C=C1C(=O)O[C@@H]2[C@@H]3[C@@H](CCC34CC4)C3(CC[C@@H]12)CC3 [Compound 26] | 95 | 94 | 94 | 93 |
| CN(C)C[C@@H]1C(=O)O[C@H]2[C@H]1CCC1(CC1)[C@@H]1CCC3(CC3)[C@H]21 [Compound 35] | 95 | 91 | 94 | 90 |
| CCOC(=O)[C@@H]1CCCN1C[C@@H]1C(=O)O[C@H]2[C@H]1CCC1(CC1)[C@@H]1CCC3(CC3)[C@H]21 [Compound 29] | 96 | 93 | 95 | 92 |
| C=C1C(=O)O[C@@H]2[C@H]3C(C)=CC[C@@]34O[C@@]4(C)CC[C@@H]12 [Compound 50] | 92 | 90 | 91 | 89 |
| CN(C)C[C@@H]1C(=O)O[C@H]2[C@H]1CCC1(CC1)[C@@H]1CCC3(CC3)[C@H]21 [Compound 27] | 91 | 88 | 89 | 81 |
| C=C1C(=O)O[C@@H]2[C@@H]3[C@@H](CC[C@@]3(C)O)[C@](C)(O)CC[C@@H]12 [Compound 49] | 96 | 94 | 95 | 92 |
| [2H][C@@]1(CN(C)C)C(=O)O[C@@H]2[C@@H]3[C@@H](CCC34CC4)C3(CC[C@H]21)CC3 [Compound 46] | 95 | 94 | 94 | 92 |
| C=C1C(=O)O[C@@H]2[C@@H]3[C@@H](CC[C@@]3(C)O)C(=C)CC[C@@H]12 [Compound 48] | 92 | 91 | 91 | 89 |
